Source: ChEMBL document CHEMBL4387733, “Design, synthesis and biological evaluation of indane derived GPR40 agoPAMs” (Bioorg Med Chem Lett, 2019)
≈ marks a conversion by molar mass, not a printed value. Calls of active or inactive are those of the source. The rule behind the calls is not given here.

How the values were obtained:
Rattus norvegicus [1] = species: Rattus norvegicus; experiment: Inhibition of rat P2Y receptor at 10 uM relative to control
[2] = biological target: MAP/microtubule affinity-regulating kinase 3 (Homo sapiens) (UniProt P27448); experiment: Inhibition of human full-length recombinant MARK3 expressed in insect cells at 10 uM using CHKtide as substrate preincubated for 15 mins followed by substrate addition and measured after 30 mins in presence of [gamma32P]ATP by scintillation counting analysis relative to control
[3] = biological target: Free fatty acid receptor 1 (Homo sapiens, UniProt O14842); experiment: Positive allosteric modulation of recombinant human GPR40 expressed in HEK293 cells assessed as increase in [3H]-myo-inositol phosphate accumulation measured after 60 mins in presence of 100% human serum by microbeta counting method; format: functional, cell-based
[4] = biological target: Acetylcholinesterase (Homo sapiens) (UniProt P22303); experiment: Inhibition of human recombinant full length acetylcholine esterase expressed in HEK293 cells at 10 uM using acetylcholine as substrate preincubated for 15 mins followed by substrate addition measured after 20 mins by spectrophotometric analysis
[5] = biological target: Cysteinyl leukotriene receptor 2 (Homo sapiens) (UniProt Q9NS75); experiment: Displacement of [3H]LTD4 from human full-length recombinant cysteinyl leukotriene type-2 receptor expressed in HEK293 cells at 10 uM measured after 60 mins by scintillation counting method relative to control; format: cell-based
[6] = biological target: Sodium-dependent serotonin transporter (Homo sapiens) (UniProt P31645); experiment: Inhibition of human SERT at 10 uM relative to control
[7] = biological target: Sodium-dependent dopamine transporter (Homo sapiens) (UniProt Q01959); experiment: Inhibition of human sodium dependent dopamine transporter at 10 uM relative to control
[8] = biological target: Sodium-dependent noradrenaline transporter (Homo sapiens) (UniProt P23975); experiment: Inhibition of human sodium dependent noradrenaline transporter at 10 uM relative to control
[9] = biological target: Prostaglandin G/H synthase 1 (Homo sapiens) (UniProt P23219); experiment: Inhibition of human recombinant cyclooxygenase COX1 expressed in baculovirus infected Sf9 cells at 10 uM using arachidonic acid as substrate preincubated for 15 mins followed by substrate addition and measured after 3 mins by ampliflu red reagent-based spectrofluorimetric method relative to control
[10] = biological target: Prostaglandin G/H synthase 2 (Homo sapiens) (UniProt P35354); experiment: Inhibition of human recombinant cyclooxygenase COX2 expressed in baculovirus infected Sf9 cells at 10 uM using arachidonic acid as substrate preincubated for 15 mins followed by substrate addition and measured after 3 mins by ampliflu red reagent-based spectrofluorimetric method relative to control
Caspase-8 (Homo sapiens) = Caspase-8 (Homo sapiens) (UniProt Q14790); experiment: Inhibition of human full-length recombinant caspase 8 expressed in Escherichia coli at 10 uM using Ac-IETD-AMC as substrate preincubated for 15 mins followed by substrate addition and measured after 60 mins by spectrofluorimetric analysis relative to control
Caspase-9 (Homo sapiens) = Caspase-9 (Homo sapiens) (UniProt P55211); experiment: Inhibition of human full-length recombinant caspase 9 expressed in Escherichia coli at 10 uM using Ac-LEHD-AFC as substrate preincubated for 15 mins followed by substrate addition and measured after 60 mins by spectrofluorimetric analysis relative to control
[11] = biological target: Cathepsin G (Homo sapiens) (UniProt P08311); experiment: Inhibition of human neutrophil cathepsin G at 10 uM using Suc-Ala-Ala-Pro-Phe-AMC as substrate preincubated for 15 mins followed by substrate addition and measured after 30 mins by spectrofluorimetric analysis relative to control
[12] = biological target: Mitogen-activated protein kinase 3 (Homo sapiens) (UniProt P27361); experiment: Inhibition of human recombinant full-length ERK1 expressed in Escherichia coli at 10 uM using myelin basic protein as substrate preincubated for 30 mins followed by substrate addition and measured after 30 mins in the presence of [gamma32P]ATP by scintillation counting method relative to control
[13] = biological target: Alpha-2A adrenergic receptor (Homo sapiens) (UniProt P08913); experiment: Inhibition of human adrenergic alpha2A receptor at 10 uM relative to control
[14] = biological target: Alpha-2C adrenergic receptor (Homo sapiens) (UniProt P18825); experiment: Inhibition of human adrenergic alpha2C receptor at 10 uM relative to control
[15] = biological target: B1 bradykinin receptor (Homo sapiens) (UniProt P46663); experiment: Displacement of [3H]Kallidin(des-Arg10,Leu9) from human recombinant bradykinin B1 receptor expressed in CHOK1 cells at 10 uM after 60 mins by scintillation counting assay relative to control; format: cell-based
[16] = biological target: D(1A) dopamine receptor (Homo sapiens) (UniProt P21728); experiment: Inhibition of human dopamine D1 receptor at 10 uM relative to control
[17] = biological target: D(2) dopamine receptor (Homo sapiens) (UniProt P14416); experiment: Inhibition of human dopamine D2s receptor at 10 uM relative to control
[18] = biological target: GABA-A receptor; anion channel (Rattus norvegicus) (UniProt O09028+P15431+P18506+P18508+P19969+P20236+P23574+P23576+P28471+P28473+P30191+P62813+P63079+P63138+Q91ZM7+Q9ES14); experiment: Inhibition of rat GABAA receptor at 10 uM relative to control; format: protein-complex assay
[19] = biological target: Histamine H1 receptor (Homo sapiens) (UniProt P35367); experiment: Inhibition of human histamine H1 receptor at 10 uM relative to control
[20] = biological target: Histamine H2 receptor (Homo sapiens) (UniProt P25021); experiment: Inhibition of human histamine H2 receptor at 10 uM relative to control
[21] = biological target: Muscarinic acetylcholine receptor M3 (Homo sapiens) (UniProt P20309); experiment: Inhibition of human muscarinic M3 receptor at 10 uM relative to control
[22] = biological target: Kappa-type opioid receptor (Homo sapiens) (UniProt P41145); experiment: Inhibition of human kappa type opioid receptor at 10 uM relative to control
[23] = biological target: Mu-type opioid receptor (Homo sapiens) (UniProt P35372); experiment: Inhibition of human mu type opioid receptor at 10 uM relative to control
[24] = biological target: Prostaglandin E2 receptor EP1 subtype (Homo sapiens) (UniProt P34995); experiment: Inhibition of human prostanoid EP1 receptor at 10 uM relative to control
[25] = biological target: Prostaglandin E2 receptor EP3 subtype (Homo sapiens) (UniProt P43115); experiment: Inhibition of human prostanoid EP3 receptor at 10 uM relative to control
Mus musculus = species: Mus musculus; experiment: Glucose lowering effect in GPR40 knockout mouse assessed as increase in GLP-1 level; format: functional, organism-based
[26] = biological target: 5-hydroxytryptamine receptor 1A (Homo sapiens) (UniProt P08908); experiment: Inhibition of human 5HT1A receptor at 10 uM relative to control
[27] = biological target: 5-hydroxytryptamine receptor 2A (Homo sapiens) (UniProt P28223); experiment: Inhibition of human 5-HT2A receptor at 10 uM relative to control
[28] = biological target: 5-hydroxytryptamine receptor 2B (Homo sapiens) (UniProt P41595); experiment: Inhibition of human 5-HT2B receptor at 10 uM relative to control
[29] = biological target: 5-hydroxytryptamine receptor 2C (Homo sapiens) (UniProt P28335); experiment: Inhibition of human 5-HT2C receptor at 10 uM relative to control
Rattus norvegicus [30] = experiment: Hypoglycemic activity in Sprague-Dawley rat assessed as reduction in blood glucose AUC at 0.3 mg/kg, po pretreated for 1 hr followed by glucose challenge by OGTT relative to control; format: functional
[31] = Solubility of the compound in FASSIF; format: physicochemical
[32] = biological target: Histamine H4 receptor (Homo sapiens) (UniProt Q9H3N8); experiment: Inhibition of human histamine H4 receptor at 10 uM relative to control

Sequence of Alpha-2C adrenergic receptor (Homo sapiens) (P18825 whole entry): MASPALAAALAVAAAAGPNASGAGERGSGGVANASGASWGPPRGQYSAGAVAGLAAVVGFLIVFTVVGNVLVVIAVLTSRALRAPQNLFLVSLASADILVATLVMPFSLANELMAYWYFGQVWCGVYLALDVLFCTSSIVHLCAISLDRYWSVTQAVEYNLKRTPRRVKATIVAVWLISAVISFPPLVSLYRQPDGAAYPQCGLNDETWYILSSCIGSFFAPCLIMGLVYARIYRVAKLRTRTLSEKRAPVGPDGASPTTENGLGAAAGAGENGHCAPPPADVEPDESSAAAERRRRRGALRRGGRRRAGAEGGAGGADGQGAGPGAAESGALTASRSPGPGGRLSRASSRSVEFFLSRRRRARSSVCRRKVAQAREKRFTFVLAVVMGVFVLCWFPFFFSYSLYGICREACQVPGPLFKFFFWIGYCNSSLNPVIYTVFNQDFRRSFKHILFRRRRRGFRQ
Sequence of Muscarinic acetylcholine receptor M3 (Homo sapiens) (P20309 whole entry, looked up): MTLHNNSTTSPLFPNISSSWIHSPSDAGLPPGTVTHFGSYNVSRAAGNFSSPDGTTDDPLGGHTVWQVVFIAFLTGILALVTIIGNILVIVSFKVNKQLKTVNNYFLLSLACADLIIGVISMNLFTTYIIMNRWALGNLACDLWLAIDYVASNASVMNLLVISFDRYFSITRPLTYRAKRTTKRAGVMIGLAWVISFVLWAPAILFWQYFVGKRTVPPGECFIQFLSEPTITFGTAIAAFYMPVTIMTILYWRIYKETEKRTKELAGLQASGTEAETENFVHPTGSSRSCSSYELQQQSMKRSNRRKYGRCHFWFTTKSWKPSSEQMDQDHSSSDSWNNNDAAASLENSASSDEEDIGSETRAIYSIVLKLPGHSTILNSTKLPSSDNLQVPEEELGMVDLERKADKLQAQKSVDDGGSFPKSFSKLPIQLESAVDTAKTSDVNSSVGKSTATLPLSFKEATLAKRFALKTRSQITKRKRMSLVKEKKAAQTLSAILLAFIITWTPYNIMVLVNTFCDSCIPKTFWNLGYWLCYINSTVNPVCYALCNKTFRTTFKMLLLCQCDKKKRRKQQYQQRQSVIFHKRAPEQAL
Sequence of Sodium-dependent serotonin transporter (Homo sapiens) (P31645 whole entry, looked up): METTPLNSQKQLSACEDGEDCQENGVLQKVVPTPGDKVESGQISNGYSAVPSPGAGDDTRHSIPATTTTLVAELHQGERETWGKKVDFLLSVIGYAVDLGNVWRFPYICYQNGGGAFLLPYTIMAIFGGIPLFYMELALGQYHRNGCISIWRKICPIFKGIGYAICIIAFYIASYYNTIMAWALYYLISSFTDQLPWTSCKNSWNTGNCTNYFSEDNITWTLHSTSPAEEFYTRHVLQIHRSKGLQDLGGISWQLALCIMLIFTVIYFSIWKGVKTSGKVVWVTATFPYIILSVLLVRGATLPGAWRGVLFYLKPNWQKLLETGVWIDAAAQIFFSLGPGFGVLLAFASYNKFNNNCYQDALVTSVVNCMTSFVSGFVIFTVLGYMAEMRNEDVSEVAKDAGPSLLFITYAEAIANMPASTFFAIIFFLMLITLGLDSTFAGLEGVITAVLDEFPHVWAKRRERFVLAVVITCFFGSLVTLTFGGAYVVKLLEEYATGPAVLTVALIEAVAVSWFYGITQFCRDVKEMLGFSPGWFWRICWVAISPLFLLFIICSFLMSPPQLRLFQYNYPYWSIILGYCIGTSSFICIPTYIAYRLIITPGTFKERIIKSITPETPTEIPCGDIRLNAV
Sequence of Prostaglandin G/H synthase 1 (Homo sapiens) (P23219 whole entry): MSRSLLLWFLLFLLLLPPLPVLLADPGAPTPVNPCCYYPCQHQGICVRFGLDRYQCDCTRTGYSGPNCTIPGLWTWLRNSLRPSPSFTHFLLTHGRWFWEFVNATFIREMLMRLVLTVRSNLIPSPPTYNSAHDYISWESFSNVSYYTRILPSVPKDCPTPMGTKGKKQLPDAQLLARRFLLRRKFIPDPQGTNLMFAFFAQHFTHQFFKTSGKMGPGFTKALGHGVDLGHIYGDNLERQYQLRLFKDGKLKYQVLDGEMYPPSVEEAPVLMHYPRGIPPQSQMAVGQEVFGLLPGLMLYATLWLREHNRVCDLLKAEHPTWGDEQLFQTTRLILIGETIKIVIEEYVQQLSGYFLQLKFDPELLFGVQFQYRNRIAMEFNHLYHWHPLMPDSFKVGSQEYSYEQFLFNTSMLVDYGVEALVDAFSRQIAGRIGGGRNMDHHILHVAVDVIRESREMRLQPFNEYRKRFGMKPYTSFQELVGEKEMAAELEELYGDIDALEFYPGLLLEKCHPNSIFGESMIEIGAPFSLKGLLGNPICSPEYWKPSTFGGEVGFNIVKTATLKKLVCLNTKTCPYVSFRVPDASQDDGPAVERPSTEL
Sequence of Prostaglandin E2 receptor EP3 subtype (Homo sapiens) (P43115 whole entry): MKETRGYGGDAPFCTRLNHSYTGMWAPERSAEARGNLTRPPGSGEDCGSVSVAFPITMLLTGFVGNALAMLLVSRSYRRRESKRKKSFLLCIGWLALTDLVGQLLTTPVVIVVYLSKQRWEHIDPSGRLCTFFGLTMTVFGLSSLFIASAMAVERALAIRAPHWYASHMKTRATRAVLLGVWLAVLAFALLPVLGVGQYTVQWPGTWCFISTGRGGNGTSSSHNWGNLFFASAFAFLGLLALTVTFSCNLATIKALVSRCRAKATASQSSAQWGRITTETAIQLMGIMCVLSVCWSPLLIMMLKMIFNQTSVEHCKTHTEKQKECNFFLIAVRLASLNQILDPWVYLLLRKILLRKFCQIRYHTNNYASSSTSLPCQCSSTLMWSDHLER
Sequence of Alpha-2A adrenergic receptor (Homo sapiens) (P08913 whole entry): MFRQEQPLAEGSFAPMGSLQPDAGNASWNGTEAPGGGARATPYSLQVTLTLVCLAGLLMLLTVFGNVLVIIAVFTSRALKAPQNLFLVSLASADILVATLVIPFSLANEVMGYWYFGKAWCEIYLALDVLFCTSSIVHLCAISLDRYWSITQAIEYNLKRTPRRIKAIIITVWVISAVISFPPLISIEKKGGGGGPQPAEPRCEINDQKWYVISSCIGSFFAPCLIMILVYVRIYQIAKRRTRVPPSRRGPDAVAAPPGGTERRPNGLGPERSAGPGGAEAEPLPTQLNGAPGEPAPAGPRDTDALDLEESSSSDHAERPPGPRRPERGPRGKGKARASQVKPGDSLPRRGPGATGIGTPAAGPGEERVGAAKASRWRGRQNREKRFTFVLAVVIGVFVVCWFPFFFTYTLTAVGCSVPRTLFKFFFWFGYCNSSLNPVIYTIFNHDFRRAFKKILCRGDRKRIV
Sequence of Histamine H2 receptor (Homo sapiens) (P25021 whole entry): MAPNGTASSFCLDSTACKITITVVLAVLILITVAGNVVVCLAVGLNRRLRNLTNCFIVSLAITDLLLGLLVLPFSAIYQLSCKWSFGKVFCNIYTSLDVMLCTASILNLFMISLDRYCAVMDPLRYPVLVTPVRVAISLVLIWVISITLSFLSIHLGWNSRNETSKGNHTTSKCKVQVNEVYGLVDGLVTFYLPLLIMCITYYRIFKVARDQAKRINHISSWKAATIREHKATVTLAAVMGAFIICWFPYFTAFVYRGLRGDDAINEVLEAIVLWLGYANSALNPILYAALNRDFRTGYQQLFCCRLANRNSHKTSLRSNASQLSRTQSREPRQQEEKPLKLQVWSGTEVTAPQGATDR
Sequence of MAP/microtubule affinity-regulating kinase 3 (Homo sapiens) (P27448 whole entry, looked up): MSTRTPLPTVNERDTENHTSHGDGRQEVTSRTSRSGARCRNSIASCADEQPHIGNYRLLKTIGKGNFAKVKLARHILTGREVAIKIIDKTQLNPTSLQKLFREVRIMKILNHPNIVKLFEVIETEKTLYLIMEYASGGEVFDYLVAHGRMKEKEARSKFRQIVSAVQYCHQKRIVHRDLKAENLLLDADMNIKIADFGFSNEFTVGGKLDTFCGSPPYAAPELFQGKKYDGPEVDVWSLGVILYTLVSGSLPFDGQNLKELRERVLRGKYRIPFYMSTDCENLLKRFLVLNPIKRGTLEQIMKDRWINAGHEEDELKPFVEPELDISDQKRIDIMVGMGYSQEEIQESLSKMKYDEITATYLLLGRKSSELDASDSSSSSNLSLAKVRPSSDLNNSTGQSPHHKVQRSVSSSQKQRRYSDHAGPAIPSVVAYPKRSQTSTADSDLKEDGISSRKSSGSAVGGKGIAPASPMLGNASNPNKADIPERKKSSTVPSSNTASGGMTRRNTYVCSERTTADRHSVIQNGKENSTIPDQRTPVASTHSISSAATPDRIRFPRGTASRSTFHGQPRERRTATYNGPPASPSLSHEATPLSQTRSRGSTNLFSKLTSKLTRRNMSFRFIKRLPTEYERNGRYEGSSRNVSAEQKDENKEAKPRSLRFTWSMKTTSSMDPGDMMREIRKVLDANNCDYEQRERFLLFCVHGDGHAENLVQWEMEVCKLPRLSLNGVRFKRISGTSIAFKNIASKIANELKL
Sequence of Mitogen-activated protein kinase 3 (Homo sapiens) (P27361 whole entry): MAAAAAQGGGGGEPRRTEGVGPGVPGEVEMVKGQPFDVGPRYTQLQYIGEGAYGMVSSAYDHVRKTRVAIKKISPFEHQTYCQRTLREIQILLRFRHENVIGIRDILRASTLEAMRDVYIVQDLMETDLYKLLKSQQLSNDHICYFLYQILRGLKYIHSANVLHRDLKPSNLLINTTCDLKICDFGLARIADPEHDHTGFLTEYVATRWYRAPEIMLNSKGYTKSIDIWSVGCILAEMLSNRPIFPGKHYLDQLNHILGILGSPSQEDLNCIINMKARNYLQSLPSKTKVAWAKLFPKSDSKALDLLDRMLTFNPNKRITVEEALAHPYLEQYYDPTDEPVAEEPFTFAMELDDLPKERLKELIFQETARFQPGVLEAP
Sequence of Cathepsin G (Homo sapiens) (P08311 whole entry): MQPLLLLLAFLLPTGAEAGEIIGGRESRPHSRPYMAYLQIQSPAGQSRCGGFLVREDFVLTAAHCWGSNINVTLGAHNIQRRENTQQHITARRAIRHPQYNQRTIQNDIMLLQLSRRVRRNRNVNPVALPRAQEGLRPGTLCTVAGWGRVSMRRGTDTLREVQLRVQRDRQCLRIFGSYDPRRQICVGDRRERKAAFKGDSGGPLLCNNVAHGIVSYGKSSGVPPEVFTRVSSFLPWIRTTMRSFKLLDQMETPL

`COc1ccc(F)c(-c2ccc(COc3cccc([C@@H](CC(=O)O)C4CC4)c3)cc2C2=CCCC2(C)C)c1` showed an inhibition (Rattus norvegicus [1]) of 80%, an inhibition [2] of 81% and a fEC50 [3] of 0.06 nM. It also gave an inhibition [4] of 52%, an inhibition [5] of 61% and an inhibition [6] of 70%. For the same compound, the inhibition [7] was 97%, the inhibition [8] was 95% and the inhibition [9] was 67%. It also gave an inhibition [10] of 77%, an inhibition (Caspase-8 (Homo sapiens)) of 65% and an inhibition (Caspase-9 (Homo sapiens)) of 89%. For the same compound, the inhibition [11] was 53%, the inhibition [12] was 96% and the inhibition [13] was 99%. The inhibition [14] was 99%, the inhibition [15] was 63% and the inhibition [16] was 78%. It also gave an inhibition [17] of 66%, an inhibition [18] of 60% and an inhibition [19] of 97%. The inhibition [20] was 66%, the inhibition [21] was 60% and the inhibition [22] was 97%. The inhibition [23] was 99%, the inhibition [24] was 95% and the inhibition [25] was 77%. For the same compound, the Activity (Mus musculus) was “Active”, the inhibition [26] was 91% and the inhibition [27] was 89%. The inhibition [28] was 88%, the inhibition [29] was 94% and the Activity (Rattus norvegicus [30]) was “Active”. For the same compound, the solubility [31] was 166 µM (≈ 85.4 µg/mL) and the inhibition [32] was 82%.
